Drawing on publication PMC7108927, “TYK2 inhibition reduces type 3 immunity and modifies disease progression in murine spondyloarthritis” (The Journal of Clinical Investigation, 2020), this text covers IC50 for one substance.

Some targets named below: JAK1 (Homo sapiens, UniProt P23458); JAK2 (Homo sapiens, UniProt O60674); TYK2 (Homo sapiens, UniProt P29597).
Holding throughout (test): radiometric kinase assay with peptide substrate
Format in all cases: biochemical

The target of a further experiment is T1, JAK3 (Homo sapiens, UniProt P52333).
T1 sequence (P52333 1-1124): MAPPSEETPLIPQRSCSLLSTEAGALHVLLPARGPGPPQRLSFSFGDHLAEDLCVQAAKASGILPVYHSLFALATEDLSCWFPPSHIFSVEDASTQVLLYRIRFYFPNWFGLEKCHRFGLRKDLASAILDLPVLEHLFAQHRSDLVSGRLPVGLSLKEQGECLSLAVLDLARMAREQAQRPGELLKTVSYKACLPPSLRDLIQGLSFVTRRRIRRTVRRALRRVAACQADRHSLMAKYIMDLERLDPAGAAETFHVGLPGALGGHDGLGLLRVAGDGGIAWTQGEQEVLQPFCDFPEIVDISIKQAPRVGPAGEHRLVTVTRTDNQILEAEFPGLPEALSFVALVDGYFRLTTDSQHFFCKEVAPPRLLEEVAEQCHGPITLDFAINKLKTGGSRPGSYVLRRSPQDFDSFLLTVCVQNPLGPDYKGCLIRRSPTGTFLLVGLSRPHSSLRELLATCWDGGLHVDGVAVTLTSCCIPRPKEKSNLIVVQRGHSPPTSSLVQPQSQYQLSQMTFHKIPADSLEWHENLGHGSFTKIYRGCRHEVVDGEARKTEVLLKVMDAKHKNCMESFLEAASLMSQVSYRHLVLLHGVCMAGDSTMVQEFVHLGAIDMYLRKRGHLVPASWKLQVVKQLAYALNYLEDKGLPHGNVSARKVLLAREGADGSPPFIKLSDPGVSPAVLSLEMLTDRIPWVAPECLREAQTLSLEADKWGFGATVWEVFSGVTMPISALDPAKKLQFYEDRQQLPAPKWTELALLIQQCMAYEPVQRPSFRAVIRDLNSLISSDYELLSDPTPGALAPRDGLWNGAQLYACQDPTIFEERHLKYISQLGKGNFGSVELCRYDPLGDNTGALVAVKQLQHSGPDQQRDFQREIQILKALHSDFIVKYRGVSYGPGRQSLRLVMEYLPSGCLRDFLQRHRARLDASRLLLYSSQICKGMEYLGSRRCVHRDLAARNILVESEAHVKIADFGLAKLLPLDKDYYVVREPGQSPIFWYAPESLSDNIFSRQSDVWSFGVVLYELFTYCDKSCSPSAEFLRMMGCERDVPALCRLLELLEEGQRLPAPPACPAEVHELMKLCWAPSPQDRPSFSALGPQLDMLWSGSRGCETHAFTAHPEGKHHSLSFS

Chain of JAK1 (P23458 whole entry): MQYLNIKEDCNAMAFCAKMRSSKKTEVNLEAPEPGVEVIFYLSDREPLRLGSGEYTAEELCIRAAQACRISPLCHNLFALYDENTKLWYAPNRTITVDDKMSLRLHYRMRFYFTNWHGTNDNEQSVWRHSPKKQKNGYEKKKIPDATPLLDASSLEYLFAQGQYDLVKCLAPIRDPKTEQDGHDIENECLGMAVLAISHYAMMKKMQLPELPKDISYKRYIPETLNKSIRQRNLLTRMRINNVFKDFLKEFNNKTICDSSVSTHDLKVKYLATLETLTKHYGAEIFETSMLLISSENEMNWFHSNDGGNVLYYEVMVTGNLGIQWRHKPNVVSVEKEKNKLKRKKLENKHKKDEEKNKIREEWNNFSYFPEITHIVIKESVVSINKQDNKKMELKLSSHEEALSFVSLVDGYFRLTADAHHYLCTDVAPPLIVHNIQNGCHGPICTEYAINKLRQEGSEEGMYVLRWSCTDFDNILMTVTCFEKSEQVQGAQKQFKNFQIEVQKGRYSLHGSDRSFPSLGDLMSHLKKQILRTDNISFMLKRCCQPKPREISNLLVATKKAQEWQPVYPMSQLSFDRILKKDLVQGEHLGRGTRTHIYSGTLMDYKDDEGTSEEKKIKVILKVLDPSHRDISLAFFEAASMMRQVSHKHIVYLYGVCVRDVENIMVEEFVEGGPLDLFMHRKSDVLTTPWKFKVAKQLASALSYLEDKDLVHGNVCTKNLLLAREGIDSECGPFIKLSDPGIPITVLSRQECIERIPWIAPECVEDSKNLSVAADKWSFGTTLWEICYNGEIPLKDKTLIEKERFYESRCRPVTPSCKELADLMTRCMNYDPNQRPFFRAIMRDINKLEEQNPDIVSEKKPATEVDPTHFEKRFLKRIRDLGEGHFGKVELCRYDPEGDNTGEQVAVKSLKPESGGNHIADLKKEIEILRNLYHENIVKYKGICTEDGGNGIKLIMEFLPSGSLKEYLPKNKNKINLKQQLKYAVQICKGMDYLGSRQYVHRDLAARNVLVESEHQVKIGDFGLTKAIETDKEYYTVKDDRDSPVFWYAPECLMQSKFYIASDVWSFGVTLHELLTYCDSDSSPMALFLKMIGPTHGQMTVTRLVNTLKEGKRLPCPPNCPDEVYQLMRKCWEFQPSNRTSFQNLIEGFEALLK
Chain of JAK2 (O60674 whole entry): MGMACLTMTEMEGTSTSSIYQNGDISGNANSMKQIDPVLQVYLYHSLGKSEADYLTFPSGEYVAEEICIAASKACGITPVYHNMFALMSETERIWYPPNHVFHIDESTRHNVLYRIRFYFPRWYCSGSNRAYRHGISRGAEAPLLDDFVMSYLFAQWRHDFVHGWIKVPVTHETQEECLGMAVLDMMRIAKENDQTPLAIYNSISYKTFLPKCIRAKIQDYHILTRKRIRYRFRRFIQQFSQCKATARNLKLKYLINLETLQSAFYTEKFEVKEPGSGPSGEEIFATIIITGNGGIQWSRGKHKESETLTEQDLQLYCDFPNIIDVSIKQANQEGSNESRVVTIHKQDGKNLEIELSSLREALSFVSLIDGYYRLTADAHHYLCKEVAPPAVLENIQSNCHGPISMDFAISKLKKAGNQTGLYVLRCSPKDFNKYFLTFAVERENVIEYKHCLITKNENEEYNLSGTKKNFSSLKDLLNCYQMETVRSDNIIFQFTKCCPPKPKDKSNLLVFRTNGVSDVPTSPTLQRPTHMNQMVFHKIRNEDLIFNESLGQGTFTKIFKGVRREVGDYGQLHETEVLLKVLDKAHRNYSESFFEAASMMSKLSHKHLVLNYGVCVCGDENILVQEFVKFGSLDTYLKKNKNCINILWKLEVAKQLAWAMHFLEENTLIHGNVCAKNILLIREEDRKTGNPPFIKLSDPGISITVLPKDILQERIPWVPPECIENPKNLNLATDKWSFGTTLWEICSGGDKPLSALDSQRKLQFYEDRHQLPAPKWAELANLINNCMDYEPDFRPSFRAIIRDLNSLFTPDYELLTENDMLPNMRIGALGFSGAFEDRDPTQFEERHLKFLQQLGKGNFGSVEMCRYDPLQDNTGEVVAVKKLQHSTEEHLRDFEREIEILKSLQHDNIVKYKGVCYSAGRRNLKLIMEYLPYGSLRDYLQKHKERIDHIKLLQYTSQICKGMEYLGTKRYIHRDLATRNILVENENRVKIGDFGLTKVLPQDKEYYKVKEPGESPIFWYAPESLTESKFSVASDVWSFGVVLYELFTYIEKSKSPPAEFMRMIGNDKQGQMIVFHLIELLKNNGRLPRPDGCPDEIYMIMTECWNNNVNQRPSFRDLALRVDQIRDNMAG
Chain of TYK2 (P29597 whole entry): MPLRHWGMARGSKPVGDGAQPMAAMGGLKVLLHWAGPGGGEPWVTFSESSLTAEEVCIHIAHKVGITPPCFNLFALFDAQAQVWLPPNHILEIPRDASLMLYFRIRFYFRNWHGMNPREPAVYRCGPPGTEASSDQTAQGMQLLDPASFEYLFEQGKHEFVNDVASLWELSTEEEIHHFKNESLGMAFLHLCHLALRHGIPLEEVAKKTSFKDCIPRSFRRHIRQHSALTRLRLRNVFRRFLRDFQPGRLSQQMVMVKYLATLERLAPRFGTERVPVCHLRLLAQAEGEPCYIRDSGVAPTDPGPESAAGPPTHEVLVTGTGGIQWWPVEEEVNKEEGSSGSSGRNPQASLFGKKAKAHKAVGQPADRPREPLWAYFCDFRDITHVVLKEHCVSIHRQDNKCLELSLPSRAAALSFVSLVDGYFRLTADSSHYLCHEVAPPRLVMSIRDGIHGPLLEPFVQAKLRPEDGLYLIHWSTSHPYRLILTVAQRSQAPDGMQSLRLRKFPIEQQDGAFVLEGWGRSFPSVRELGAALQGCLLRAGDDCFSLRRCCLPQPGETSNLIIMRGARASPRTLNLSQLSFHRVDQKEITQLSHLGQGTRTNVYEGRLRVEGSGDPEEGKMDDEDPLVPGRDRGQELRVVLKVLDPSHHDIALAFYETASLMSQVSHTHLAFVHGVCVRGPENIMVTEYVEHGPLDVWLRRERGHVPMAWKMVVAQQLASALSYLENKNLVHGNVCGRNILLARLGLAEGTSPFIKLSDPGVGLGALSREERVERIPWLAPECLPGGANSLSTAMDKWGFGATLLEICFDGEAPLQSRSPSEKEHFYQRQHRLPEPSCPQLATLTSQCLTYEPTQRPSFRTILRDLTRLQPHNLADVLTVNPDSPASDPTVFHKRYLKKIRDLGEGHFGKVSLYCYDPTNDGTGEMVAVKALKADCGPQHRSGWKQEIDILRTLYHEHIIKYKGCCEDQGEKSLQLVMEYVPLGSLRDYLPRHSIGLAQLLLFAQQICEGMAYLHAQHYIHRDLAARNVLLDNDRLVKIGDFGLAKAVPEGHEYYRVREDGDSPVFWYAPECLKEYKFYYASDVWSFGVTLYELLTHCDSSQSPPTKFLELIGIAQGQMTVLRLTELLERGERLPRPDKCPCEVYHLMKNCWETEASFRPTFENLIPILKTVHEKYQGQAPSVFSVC

In the case of NDI-031407, the IC50 – broadly, the concentration needed to halve the response being measured – was 46 nM against JAK1, 4.2 nM against JAK3, 31 nM against JAK2 and 0.21 nM at TYK2.
